Measurements taken from article PMC12677653, “Inhibition of Tumor Lipogenesis and Growth by Peptide‐Based Targeting of SREBP Activation” (Advanced Science, 2025).

What was measured:
Huh7 cells = assay: Cell proliferation, Huh7; format: cell-based, human; settings: peptide 25 µM 1 h, IGF1 100 ng/mL 72 h, automated cell counting, n = 3
[1] = target: T1, binding of PCK1 to Insig1 (Homo sapiens, UniProt P35558); assay: Immunoprecipitation of IGF1-induced PCK1-Insig1 binding, Hep3B; format: cell-based; parameters: expressed in transfected cells; settings: Flag-PCK1-expressing Hep3B cells, peptide 15 μM 1 h before IGF1 100 ng/mL
T1 sequence (P35558 1-622): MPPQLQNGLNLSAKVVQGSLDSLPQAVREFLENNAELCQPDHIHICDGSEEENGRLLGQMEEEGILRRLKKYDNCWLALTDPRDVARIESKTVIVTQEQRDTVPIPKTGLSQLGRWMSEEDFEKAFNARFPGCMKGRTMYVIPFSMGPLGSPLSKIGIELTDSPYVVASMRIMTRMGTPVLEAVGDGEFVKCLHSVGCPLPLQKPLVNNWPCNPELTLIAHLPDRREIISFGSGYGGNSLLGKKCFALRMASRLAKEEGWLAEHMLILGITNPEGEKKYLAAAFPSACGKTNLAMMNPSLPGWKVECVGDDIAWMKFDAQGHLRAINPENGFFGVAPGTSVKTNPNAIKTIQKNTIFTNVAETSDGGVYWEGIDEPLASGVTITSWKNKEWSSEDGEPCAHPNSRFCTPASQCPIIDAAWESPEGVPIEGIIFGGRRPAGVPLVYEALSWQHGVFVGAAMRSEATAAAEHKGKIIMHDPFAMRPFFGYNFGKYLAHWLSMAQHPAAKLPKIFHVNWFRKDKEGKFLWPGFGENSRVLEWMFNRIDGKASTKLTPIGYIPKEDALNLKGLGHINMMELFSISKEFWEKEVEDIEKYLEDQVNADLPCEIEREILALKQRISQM
Protocol: Cellular proteins were extracted using ice‐cold lysis buffer [50 mM Tris‐HCl (pH 7.5), 150 mM NaCl, 0.1% SDS, 1% Triton X‐100, 1 mM DTT, 0.5 mM EDTA] supplemented with protease inhibitor cocktail (Roche) and phosphatase inhibitors (Bimake). Following lysis, cell extracts were centrifuged at 13400 × g for 15 min at 4 °C to remove cellular debris. The clarified supernatants were then incubated with primary antibodies overnight at 4 °C with gentle rotation. For Flag‐tagged protein immunoprecipitation, Flag M2 magnetic beads (Sigma) were added to the lysate‐antibody mixture and incubated for an additional 4 h at 4 °C. The immunocomplexes were washed three times with lysis buffer under stringent conditions (5 min per wash with rotation). Finally, the precipitated proteins were eluted and analyzed by immunoblotting as previously described.^[ [35] ^]
d) Flag-PCK1-expressing Hep3B cells were pre-treated with Insig1/2 loop 1 peptide (15 μM) for 1 h before IGF1 (100 ng ml⁻¹) stimulation.

Hep3B cells = assay: Cell proliferation, Hep3B; format: cell-based, human; settings: peptide 25 μM 1 h, IGF1 100 ng/mL 72 h, automated cell counting, n = 3
Protocol: Cells were seeded in 96‐well plates at a density of 5000 cells per well in 100 µL complete growth medium. Following a 24‐hour incubation period (37 °C, 5% CO2) to permit cell adherence, the culture medium was replaced with fresh low serum contained complete medium containing either Insig1/2 loop1 peptide (0–100 µM concentration range) or PBS. Cells were maintained under these conditions for 72 hours. After treatment, the culture medium was carefully aspirated, and cells were washed twice with 200 µL phosphate‐buffered saline (PBS, pH 7.4). Fixed was performed using 4% paraformaldehyde (100 µL/well) for 15 min at room temperature, followed by three PBS washes (200 µL/well) to remove residual fixative. 0.1% (w/v) crystal violet staining solution was prepared by dissolving crystal violet powder in 10% ethanol, followed by filtration through a 0.22 µm membrane. Each well received 80 µL of staining solution and was incubated for 15 min at room temperature, protected from light. […] Plates were agitated at 200 rpm for 10 min to ensure complete dissolution before measuring absorbance at 582 nm using a microplate reader. […]
g) Cell proliferation was assessed by automated cell counting after 72 h of IGF1 stimulation (100 ng ml⁻¹) in Hep3B cells pretreated with Insig1/2 loop 1 peptide (25 μM) for 1 h.

## RKKRRQRRRLYPCIDSHLGEPHKFKRE [Insig1/2 loop 1 peptide]
Huh7 cells
  IGF1-induced increase in proliferation: inhibited
[1]
  IGF1-induced binding of PCK1 to Insig1: markedly inhibited
Hep3B cells
  IGF1-induced increase in proliferation: inhibited
